The source of these data is paper PMC12254266, “Multicolored sequential resonance energy transfer for detection of simultaneous ligand binding at G protein-coupled receptors” (Nature Communications, 2025).

Several values for one entry are separate records, joined by “and”; a condition that tells them apart may be missing. Identical values can stand only once.

The target of assay [1] is T1, FFA1-Nluc (Homo sapiens, UniProt O14842). Kind of assay: Ca2+ mobilisation antagonism of FFA1 agonists (TUG-905, T360) in Flp-In T-REx 293 cells expressing FFA1-Nluc. Type of assay: cell-based. On the set-up: expressed in transfected cells. On the procedure:
Nluc-FFA1, FFA1-Nluc or untagged FFA1 Flp-In T-REx 293 cells were plated at 50,000 cells per well in poly-D-lysine coated black clear bottom 96-well plates. Cells were then cultured for 24 h until reaching confluency before culture medium was replaced with medium containing 100 ng/mL of doxycycline to induce receptor expression. Cells were cultured for a further 24 h before the assay. On the day of the assay culture medium was removed and replaced with medium containing 3 μM Fura2-AM Ca^2+ dye. […] Fura2 fluorescent emission at 520 nm following excitation with each of 340 and 380 nm was measured in regular intervals both before and after adding test compounds for a total of 90 s per well. Calcium responses were determined by taking the peak 340/380 ratio after first subtracting the ratios obtained prior to addition of test compound. […]
Ca2+ mobilization responses were measured in
Flp-In T-REx 293 cells expressing FFA1-Nluc. Ca2+ responses to increasing concentrations
pre-treated with 10 μM PPTQ. The mode of antagonism for PPTQ was assessed by
N=3 (A-D, F, H) or N=4 (E, G) independent experiments. S ource data are provided as a […]
(Calcium assays in cells follow changes in intracellular calcium, usually with a dye or a luminescent sensor.)

Assay [2] has as its target T1, FFA1-Nluc. Description: DISCo-BRET (endpoint, spectra scan, kinetics) with TUG-2591 and TUG-2597 at C terminal Nluc tagged FFA1. On the set-up: expressed in transfected cells. Type of assay: binding. The conditions noted are these: for Specific BRET (690/540), % of control: Figure 4Aiii; for Specific BRET (690/540), % of control / Specific BRET (540/450), % of control: single replicate values (technical duplicate); for Specific BRET (540/450), % of control: Figure 4Biii. A digest of the protocol:
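After Nano-Glo substrate (1:800 final), ligand-treated FFA1-Nluc or Nluc-FFA1 cells, doxycycline-induced (100 ng/mL), were read. Kinetic association/dissociation runs were at 25 °C; endpoint and 440–740 nm spectra came after 5 min at 37 °C. Non-specific signal came from competing ligands at high concentration.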
Background: BRET reads energy transfer from a luciferase to a nearby fluorophore.

Assay [3] deals with T2, Nluc-FFA1 (Homo sapiens, UniProt O14842).
T2 construct: expressed in transfected cells
Kind of assay: NanoBRET binding (saturation, competition, kinetics) at N terminal Nluc tagged FFA1. Particulars: footnotes of Supplementary Table 3; read-out: Kd values obtained in NanoBRET saturation experiments (used for pKi) (converted). As for the experimental part:
(§1) Nluc-FFA1 or FFA1-Nluc Flp-In T-REx 293 cells were plated at 50,000 cells per well in poly-D-lysine coated white 96-well plates. Cells were cultured for 24 h in the plate before medium was replaced with medium containing 100 ng/mL of doxycycline to induce receptor expression. After culturing for a further 24 h, medium was removed, cells were washed with HBSS and incubated in HBSS for 30 min. To start the assay, NanoGlo substrate (Promega, N1110) was added to the cells at a 1:800 final dilution and incubated for 10 min at 37 °C. For endpoint assays, including both saturation and competition binding, test ligands were then added, including both fluorescent and unlabelled competing ligands as indicated, and plates incubated for a further 5 min at 37 °C. NanoBRET was then quantified in a CLARIOstar microplate reader (BMG Labtech) by measuring luminescent emission with the monochrometer set for the Nluc donor at 450–60 nm, and acceptor luminescent emission 540–60 nm (NBD), 600–80 nm (Cy3.5) or 690–100 nm (SulfoCy5), depending on which fluorophore was being tested. The acceptor/donor BRET ratio was then taken as a measure of fluorophore binding. For kinetic on then off NanoBRET experiments plates were washed the same way and substrate was added to the same concentration. However, 10 min after substrate was added plates were inserted into the CLARIOstar microplate reader set to 25 °C to take repeated measurements of luminescent emission for both the donor and the acceptor fluorophore being used. After 5 min of background measurements, the indicated concentration of fluorescent ligand was added using the plate reader injector and luminescent emission was monitored for ~10 min before the reader was paused to manually add a high concentration of appropriate competing ligand to initiate dissociation. The plate was returned to the reader and luminescence measurements were continued for a further 30 min to monitor dissociation of the fluorescent ligand. For kinetic experiments using multiple concentrations of fluorescent ligand, cells were placed in the plate reader immediately after the addition of Nano-Glo substrate and luminescent measurements were taken. After 5 min, the reader was paused to add the indicated concentrations of fluorescent ligand, before measurements were continued. To set non-specific binding for kinetic experiments, the indicated competing ligand was added 5 min before the addition of the fluorescent ligand.

For assay [4], the target named is T1, FFA1-Nluc. Description: NanoBRET binding (saturation, kinetics) at C terminal Nluc tagged FFA1. The arrangement: expressed in transfected cells. The conditions noted are these: Sup Fig 7B. As for the experimental part: as §1

T1 sequence (O14842 whole entry): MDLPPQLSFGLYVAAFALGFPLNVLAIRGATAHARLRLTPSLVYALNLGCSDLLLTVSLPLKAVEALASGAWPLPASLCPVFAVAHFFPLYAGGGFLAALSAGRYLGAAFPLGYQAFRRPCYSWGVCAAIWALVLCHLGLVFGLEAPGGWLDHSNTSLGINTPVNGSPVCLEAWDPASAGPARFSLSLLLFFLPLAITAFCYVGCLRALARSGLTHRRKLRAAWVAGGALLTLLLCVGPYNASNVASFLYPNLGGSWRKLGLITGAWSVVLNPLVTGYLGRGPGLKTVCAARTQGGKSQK
T2 sequence (O14842 whole entry): as above

For `CCCN1C(=O)c2ccccc2[C@@H](C(=O)O)[C@@H]1c1ccc(OCc2cccc(-c3ccc(OCCCS(C)(=O)=O)cc3C)c2)cc1` (racemic) [TUG-2745], in assay [1] (in words), the “antagonism of site one agonist (TUG-905) Ca2+ response” value is listed as “inhibits signalling from site one”. The “Ca2% Response (%)” value was 90.24% and 94.14% and 97.83% and 85.85% and 108.28% and 87.68% in assay [1] (response to log[T360] -5 in presence of TUG-2745, Sup Fig 6H); 106.53% and 104.17% and 101.28% and 97.48% and 114.91% and 110.38% in assay [1] (response to log[T360] -6 in presence of TUG-2745, Sup Fig 6H); 5.16% and 2.24% and -0.89% and 3.26% and 3.57% and -0.49% in assay [1] (response to log[T360] -8 in presence of TUG-2745, Sup Fig 6H); -1.82% and 2.64% and 1.16% and 1.84% and 0.35% and 1.32% in assay [1] (response to log[T360] -9 in presence of TUG-2745, Sup Fig 6H); -0.06% and 1.71% and 3.56% and 4.07% and 1.54% and 0.19% in assay [1] (response to log[T360] -10 in presence of TUG-2745, Sup Fig 6H); 2.74% and 2.14% and 3.49% and 1.57% and 6.13% and -0.07% in assay [1] (response to log[T360] -11 in presence of TUG-2745, Sup Fig 6H). Also, the “Ca2% Response (%)” value in assay [1] (response to log[TUG-905] -5 in presence of TUG-2745, Sup Fig 6G) was 59.62% and 66.91% and 76.48% and 82.73% and 94.09% and 86.41%. In addition, the “pIC50 DISCo-BRET SulfoCy5/NBD” value in assay [2] (100 nM TUG-2591 and […] TUG-2597, one site model, NC = No competition) came to 6.0±0.06. Besides, the “Specific BRET (690/540), % of control” value was 0.92 % of control and 2.39 % of control and -9.90 % of control and -8.10 % of control and -2.12 % of control and -2.60 % of control and -5.52 % of control and -2.17 % of control in assay [2] (log[Ligand] -5); 19.71 % of control and 24.68 % of control and 5.40 % of control and 1.46 % of control and 18.78 % of control and 3.37 % of control and 12.72 % of control and 3.96 % of control in assay [2] (log[Ligand] -5.5); 43.09 % of control and 64.83 % of control and 36.45 % of control and 38.47 % of control and 45.84 % of control and 53.64 % of control and 35.79 % of control and 29.99 % of control in assay [2] (log[Ligand] -6); 78.64 % of control and 74.49 % of control and 82.00 % of control and 53.43 % of control and 70.00 % of control and 66.92 % of control and 69.40 % of control and 69.25 % of control in assay [2] (log[Ligand] -6.5); 89.69 % of control and 92.82 % of control and 101.91 % of control and 88.41 % of control and 100.24 % of control and 95.91 % of control and 89.88 % of control and 95.21 % of control in assay [2] (log[Ligand] -7); 95.21 % of control and 98.62 % of control and 92.91 % of control and 107.54 % of control and 94.56 % of control and 87.72 % of control and 98.50 % of control and 104.07 % of control in assay [2] (log[Ligand] -8). Moreover, the “Specific BRET (690/540), % of control” value in assay [2] (log[Ligand] -9) is 101.38 % of control and 98.62 % of control and 102.14 % of control and 95.05 % of control and 103.71 % of control and 93.98 % of control. In addition, the “Specific BRET (540/450), % of control” value was 155.62 % of control and 107.52 % of control and 117.08 % of control and 99.92 % of control and 108.86 % of control and 92.88 % of control and 108.34 % of control in assay [2] (log[Ligand] -5); 128.42 % of control and 65.71 % of control and 109.72 % of control and 87.17 % of control and 104.75 % of control and 74.68 % of control and 117.49 % of control in assay [2] (log[Ligand] -5.5); 103.22 % of control and 89.76 % of control and 90.60 % of control and 69.85 % of control and 83.23 % of control and 146.81 % of control in assay [2] (log[Ligand] -6); 86.61 % of control and 51.40 % of control and 85.70 % of control and 71.65 % of control and 68.99 % of control in assay [2] (log[Ligand] -6.5); 100.64 % of control and 40.23 % of control and 87.50 % of control and 76.88 % of control and 80.22 % of control and 64.08 % of control and 139.58 % of control in assay [2] (log[Ligand] -7); 82.89 % of control and 76.59 % of control and 92.89 % of control and 70.83 % of control and 83.23 % of control and 65.66 % of control and 122.27 % of control in assay [2] (log[Ligand] -8). In addition, the “Specific BRET (540/450), % of control” value in assay [2] (log[Ligand] -9) was 57.41 % of control and 46.53 % of control and 87.83 % of control and 70.67 % of control and 68.35 % of control and 75.16 % of control and 107.46 % of control. Besides, in assay [2] (percentage of binding obtained in the absence of competing ligand, 100 nM TUG-2591 and […] TUG-2597), the “'bottom' of the IC50 curve, DISCo-BRET SulfoCy5/NBD” value is given as -15%. For the same compound, in assay [2] (using Kd TUG-2591 57 nM), the “pKi DISCo-BRET SulfoCy5/NBD” value is given as 6.4±0.06.
As for `CCCN1C(=O)c2ccccc2[C@@H](C(=O)O)[C@@H]1c1ccc(OCc2cccc(-c3ccc(OCCOCCNc4ccc([N+](=O)[O-])c5nonc45)cc3C)c2)cc1` [TUG-2884], the Kd in assay [3] was 940 nM. For the same compound, the “Specific BRET (%)” value in assay [4] ([TUG-2884] 1 μM) was 60.2367% and 75.4193% and 48.9635% and 51.5087% and 65.0111% and 65.7411%; in assay [4] ([TUG-2884] 2 μM) it was 98.0293% and 80.378% and 57.5363% and 68.9417% and 80.7303% and 88.1476%; in assay [4] ([TUG-2884] 4 μM, technical duplicates) it was 96.6176% and 103.382%.
